Tests used:
Design in all cases: scale not given here
[1] = tested on: CHEAL Lambsquarters, Common; experiment: Preemergence herbicidal evaluation, CHEAL; format: in vivo, Chenopodium album, L.; conditions: preemergence
Outline: (§1)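 Preemergence soil spray: aqueous acetone, ~0.013–0.800 kg/ha, applied right after sowing (seed/potting-soil mix over ~1 in soil). Greenhouse, routine watering. Scored 4–5 wk post-treatment on a rating scale.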

ECHOG Barnyardgrass [2] = experiment: Postemergence herbicidal evaluation, ECHOG; format: in vivo, Echinochloa crus-galli, (L.) Beau; conditions: postemergence spray, rated about two-three weeks after treatment
Outline: (§2)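 Ratings from greenhouse plants scored about two to three weeks after a foliar spray; data from multiple tests averaged. Seedlings about two weeks old received roughly 0.006–0.400 kg/ha active compound in 80/20 acetone/water with 1.0% methylated seed oil.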

GLXMAW Soybean, Williams [3] = experiment: Postemergence herbicidal evaluation, GLXMAW; format: in vivo, Glycine max, (L.) Merr. cv Williams; conditions: postemergence spray, rated about two-three weeks after treatment
Outline: as §2

AMBEL Ragweed, Common [4] = experiment: Postemergence herbicidal evaluation, AMBEL; format: in vivo, Ambrosia artemisifolia, L.; conditions: postemergence spray, rated about two-three weeks after treatment
Outline: as §2

ABUTH Velvetleaf [5] = experiment: Preemergence herbicidal evaluation, ABUTH; format: in vivo, Abutilon theophrasti, Medic.; conditions: preemergence
Outline: as §1

CASOB Sicklepod [6] = experiment: Postemergence herbicidal evaluation, CASOB; format: in vivo, Cassia obtusifolia, L.; conditions: postemergence spray, rated about two-three weeks after treatment
Outline: as §2

[7] = tested on: TRZAWR Wheat, Winter, cv Riband; experiment: Postemergence herbicidal evaluation, TRZAWR; format: in vivo, Triticum aestivum; conditions: postemergence spray, rated about two-three weeks after treatment
Outline: as §2

GALAP Galium [8] = experiment: Postemergence herbicidal evaluation, GALAP; format: in vivo, Galium aparine; conditions: postemergence spray, rated about two-three weeks after treatment
Outline: as §2

CASOB Sicklepod [9] = experiment: Preemergence herbicidal evaluation, CASOB; format: in vivo, Cassia obtusifolia, L.; conditions: preemergence
Outline: as §1

ECHOG Barnyardgrass [10] = experiment: Preemergence herbicidal evaluation, ECHOG; format: in vivo, Echinochloa crus-galli, (L.) Beau; conditions: preemergence
Outline: as §1

[11] = tested on: TRZAWR Wheat, Winter, cv Riband; experiment: Preemergence herbicidal evaluation, TRZAWR; format: in vivo, Triticum aestivum; conditions: preemergence
Outline: as §1

AMBEL Ragweed, Common [12] = experiment: Preemergence herbicidal evaluation, AMBEL; format: in vivo, Ambrosia artemisifolia, L.; conditions: preemergence
Outline: as §1

SETVI Foxtail, Green [13] = experiment: Postemergence herbicidal evaluation, SETVI; format: in vivo, Setaria viridis, (L.) Beau; conditions: postemergence spray, rated about two-three weeks after treatment
Outline: as §2

[14] = tested on: CHEAL Lambsquarters, Common; experiment: Postemergence herbicidal evaluation, CHEAL; format: in vivo, Chenopodium album, L.; conditions: postemergence spray, rated about two-three weeks after treatment
Outline: as §2

[15] = tested on: IPOHE Morningglory, Ivyleaf; experiment: Postemergence herbicidal evaluation, IPOHE; format: in vivo, Ipomoea hederacea, (L.) Jacq.; conditions: postemergence spray, rated about two-three weeks after treatment
Outline: as §2

GLXMAW Soybean, Williams [16] = experiment: Preemergence herbicidal evaluation, GLXMAW; format: in vivo, Glycine max, (L.) Merr. cv Williams; conditions: preemergence
Outline: as §1

ZEAMX Corn, Field [17] = experiment: Preemergence herbicidal evaluation, ZEAMX; format: in vivo, Zea mays, L. (Sammel-Bezeichnung); conditions: preemergence
Outline: as §1

GALAP Galium [18] = experiment: Preemergence herbicidal evaluation, GALAP; format: in vivo, Galium aparine; conditions: preemergence
Outline: as §1

ABUTH Velvetleaf [19] = experiment: Postemergence herbicidal evaluation, ABUTH; format: in vivo, Abutilon theophrasti, Medic.; conditions: postemergence spray, rated about two-three weeks after treatment
Outline: as §2

ZEAMX Corn, Field [20] = experiment: Postemergence herbicidal evaluation, ZEAMX; format: in vivo, Zea mays, L. (Sammel-Bezeichnung); conditions: postemergence spray, rated about two-three weeks after treatment
Outline: as §2

[21] = tested on: IPOHE Morningglory, Ivyleaf; experiment: Preemergence herbicidal evaluation, IPOHE; format: in vivo, Ipomoea hederacea, (L.) Jacq.; conditions: preemergence
Outline: as §1

SETVI Foxtail, Green [22] = experiment: Preemergence herbicidal evaluation, SETVI; format: in vivo, Setaria viridis, (L.) Beau; conditions: preemergence
Outline: as §1

ORYSAT Rice, Tebonnet [23] = experiment: Postemergence herbicidal evaluation, ORYSAT; format: in vivo, Oryza sativa, (L.); conditions: postemergence spray, rated about two-three weeks after treatment
Outline: as §2

ORYSAT Rice, Tebonnet [24] = experiment: Preemergence herbicidal evaluation, ORYSAT; format: in vivo, Oryza sativa, (L.); conditions: preemergence
Outline: as §1

## C#CCOC(=O)COc1ccc(C)cc1-n1nnc2cc(F)c(-n3c(=O)cc(C(F)(F)F)n(C)c3=O)cc21 [Example 40]
[1]; rate 0.016 kg/ha
  CHEAL herbicidal rating: 9.0
[1]; rate 0.032 kg/ha
  CHEAL herbicidal rating: 9.0
[1]; rate 0.062 kg/ha
  CHEAL herbicidal rating: 9.0
[1]; rate 0.125 kg/ha
  CHEAL herbicidal rating: 9.0
ECHOG Barnyardgrass [2]; 0.008 kg/ha
  Postemergence herbicidal rating ECHCG: 4.0
ECHOG Barnyardgrass [2]; 0.016 kg/ha
  Postemergence herbicidal rating ECHCG: 9.0
ECHOG Barnyardgrass [2]; 0.032 kg/ha
  Postemergence herbicidal rating ECHCG: 9.0
ECHOG Barnyardgrass [2]; 0.062 kg/ha
  Postemergence herbicidal rating ECHCG: 9.0
GLXMAW Soybean, Williams [3]; 0.008 kg/ha
  Postemergence herbicidal rating GLXMAW: 5.5
GLXMAW Soybean, Williams [3]; 0.016 kg/ha
  Postemergence herbicidal rating GLXMAW: 6.0
GLXMAW Soybean, Williams [3]; 0.032 kg/ha
  Postemergence herbicidal rating GLXMAW: 6.5
GLXMAW Soybean, Williams [3]; 0.062 kg/ha
  Postemergence herbicidal rating GLXMAW: 7.0
AMBEL Ragweed, Common [4]; 0.008 kg/ha
  Postemergence herbicidal rating AMBEL: 9.0
AMBEL Ragweed, Common [4]; 0.016 kg/ha
  Postemergence herbicidal rating AMBEL: 7.0
AMBEL Ragweed, Common [4]; 0.032 kg/ha
  Postemergence herbicidal rating AMBEL: 9.0
AMBEL Ragweed, Common [4]; 0.062 kg/ha
  Postemergence herbicidal rating AMBEL: 7.0
ABUTH Velvetleaf [5]; rate 0.016 kg/ha
  ABUTH herbicidal rating: 1.0
ABUTH Velvetleaf [5]; rate 0.032 kg/ha
  ABUTH herbicidal rating: 9.0
ABUTH Velvetleaf [5]; rate 0.062 kg/ha
  ABUTH herbicidal rating: 9.0
ABUTH Velvetleaf [5]; rate 0.125 kg/ha
  ABUTH herbicidal rating: 9.0
CASOB Sicklepod [6]; 0.008 kg/ha
  Postemergence herbicidal rating CASOB: 1.0
CASOB Sicklepod [6]; 0.016 kg/ha
  Postemergence herbicidal rating CASOB: 1.0
CASOB Sicklepod [6]; 0.032 kg/ha
  Postemergence herbicidal rating CASOB: 3.0
CASOB Sicklepod [6]; 0.062 kg/ha
  Postemergence herbicidal rating CASOB: 6.0
[7]; 0.008 kg/ha
  Postemergence herbicidal rating TRZAWR: 4.0
[7]; 0.016 kg/ha
  Postemergence herbicidal rating TRZAWR: 5.0
[7]; 0.032 kg/ha
  Postemergence herbicidal rating TRZAWR: 5.5
[7]; 0.062 kg/ha
  Postemergence herbicidal rating TRZAWR: 6.5
GALAP Galium [8]; 0.008 kg/ha
  Postemergence herbicidal rating GALAP: 1.0
GALAP Galium [8]; 0.016 kg/ha
  Postemergence herbicidal rating GALAP: 2.0
GALAP Galium [8]; 0.032 kg/ha
  Postemergence herbicidal rating GALAP: 2.0
GALAP Galium [8]; 0.062 kg/ha
  Postemergence herbicidal rating GALAP: 5.0
CASOB Sicklepod [9]; rate 0.016 kg/ha
  CASOB herbicidal rating: 0.0
CASOB Sicklepod [9]; rate 0.032 kg/ha
  CASOB herbicidal rating: 4.0
CASOB Sicklepod [9]; rate 0.062 kg/ha
  CASOB herbicidal rating: 3.0
CASOB Sicklepod [9]; rate 0.125 kg/ha
  CASOB herbicidal rating: 4.0
ECHOG Barnyardgrass [10]; rate 0.016 kg/ha
  ECHCG herbicidal rating: 0.0
ECHOG Barnyardgrass [10]; rate 0.032 kg/ha
  ECHCG herbicidal rating: 0.0
ECHOG Barnyardgrass [10]; rate 0.062 kg/ha
  ECHCG herbicidal rating: 0.0
ECHOG Barnyardgrass [10]; rate 0.125 kg/ha
  ECHCG herbicidal rating: 4.0
[11]; rate 0.016 kg/ha
  TRZAWR herbicidal rating: 0.0
[11]; rate 0.032 kg/ha
  TRZAWR herbicidal rating: 0.0
[11]; rate 0.062 kg/ha
  TRZAWR herbicidal rating: 0.0
[11]; rate 0.125 kg/ha
  TRZAWR herbicidal rating: 2.0
AMBEL Ragweed, Common [12]; rate 0.016 kg/ha
  AMBEL herbicidal rating: 0.0
AMBEL Ragweed, Common [12]; rate 0.032 kg/ha
  AMBEL herbicidal rating: 4.0
AMBEL Ragweed, Common [12]; rate 0.062 kg/ha
  AMBEL herbicidal rating: 3.0
AMBEL Ragweed, Common [12]; rate 0.125 kg/ha
  AMBEL herbicidal rating: 4.0
SETVI Foxtail, Green [13]; 0.008 kg/ha
  Postemergence herbicidal rating SETVI: 6.0
SETVI Foxtail, Green [13]; 0.016 kg/ha
  Postemergence herbicidal rating SETVI: 9.0
SETVI Foxtail, Green [13]; 0.032 kg/ha
  Postemergence herbicidal rating SETVI: 9.0
SETVI Foxtail, Green [13]; 0.062 kg/ha
  Postemergence herbicidal rating SETVI: 9.0
[14]; 0.008 kg/ha
  Postemergence herbicidal rating CHEAL: 4.0
[14]; 0.016 kg/ha
  Postemergence herbicidal rating CHEAL: 3.0
[14]; 0.032 kg/ha
  Postemergence herbicidal rating CHEAL: 7.0
[14]; 0.062 kg/ha
  Postemergence herbicidal rating CHEAL: 9.0
[15]; 0.008 kg/ha
  Postemergence herbicidal rating IPOHE: 9.0
[15]; 0.016 kg/ha
  Postemergence herbicidal rating IPOHE: 9.0
[15]; 0.032 kg/ha
  Postemergence herbicidal rating IPOHE: 9.0
[15]; 0.062 kg/ha
  Postemergence herbicidal rating IPOHE: 9.0
GLXMAW Soybean, Williams [16]; rate 0.016 kg/ha
  GLXMAW herbicidal rating: 0.0
GLXMAW Soybean, Williams [16]; rate 0.032 kg/ha
  GLXMAW herbicidal rating: 0.0
GLXMAW Soybean, Williams [16]; rate 0.062 kg/ha
  GLXMAW herbicidal rating: 1.0
GLXMAW Soybean, Williams [16]; rate 0.125 kg/ha
  GLXMAW herbicidal rating: 0.0
ZEAMX Corn, Field [17]; rate 0.016 kg/ha
  ZEAMX herbicidal rating: 0.0
ZEAMX Corn, Field [17]; rate 0.032 kg/ha
  ZEAMX herbicidal rating: 0.0
ZEAMX Corn, Field [17]; rate 0.062 kg/ha
  ZEAMX herbicidal rating: 1.0
ZEAMX Corn, Field [17]; rate 0.125 kg/ha
  ZEAMX herbicidal rating: 1.0
GALAP Galium [18]; rate 0.032 kg/ha
  GALAP herbicidal rating: 0.0
GALAP Galium [18]; rate 0.062 kg/ha
  GALAP herbicidal rating: 7.0
GALAP Galium [18]; rate 0.125 kg/ha
  GALAP herbicidal rating: 9.0
ABUTH Velvetleaf [19]; 0.008 kg/ha
  Postemergence herbicidal rating ABUTH: 9.0
ABUTH Velvetleaf [19]; 0.016 kg/ha
  Postemergence herbicidal rating ABUTH: 9.0
ABUTH Velvetleaf [19]; 0.032 kg/ha
  Postemergence herbicidal rating ABUTH: 9.0
ABUTH Velvetleaf [19]; 0.062 kg/ha
  Postemergence herbicidal rating ABUTH: 9.0
ZEAMX Corn, Field [20]; 0.008 kg/ha
  Postemergence herbicidal rating ZEAMX: 5.0
ZEAMX Corn, Field [20]; 0.016 kg/ha
  Postemergence herbicidal rating ZEAMX: 7.5
ZEAMX Corn, Field [20]; 0.032 kg/ha
  Postemergence herbicidal rating ZEAMX: 7.5
ZEAMX Corn, Field [20]; 0.062 kg/ha
  Postemergence herbicidal rating ZEAMX: 8.5
[21]; rate 0.016 kg/ha
  IPOHE herbicidal rating: 0.0
[21]; rate 0.032 kg/ha
  IPOHE herbicidal rating: 1.0
[21]; rate 0.062 kg/ha
  IPOHE herbicidal rating: 3.0
[21]; rate 0.125 kg/ha
  IPOHE herbicidal rating: 9.0
SETVI Foxtail, Green [22]; rate 0.016 kg/ha
  SETVI herbicidal rating: 0.0
SETVI Foxtail, Green [22]; rate 0.032 kg/ha
  SETVI herbicidal rating: 4.0
SETVI Foxtail, Green [22]; rate 0.062 kg/ha
  SETVI herbicidal rating: 5.0
SETVI Foxtail, Green [22]; rate 0.125 kg/ha
  SETVI herbicidal rating: 6.0
ORYSAT Rice, Tebonnet [23]; 0.008 kg/ha
  Postemergence herbicidal rating ORYSAT: 4.0
ORYSAT Rice, Tebonnet [23]; 0.016 kg/ha
  Postemergence herbicidal rating ORYSAT: 5.0
ORYSAT Rice, Tebonnet [23]; 0.032 kg/ha
  Postemergence herbicidal rating ORYSAT: 5.0
ORYSAT Rice, Tebonnet [23]; 0.062 kg/ha
  Postemergence herbicidal rating ORYSAT: 6.5
ORYSAT Rice, Tebonnet [24]; rate 0.016 kg/ha
  ORYSAT herbicidal rating: 0.0
ORYSAT Rice, Tebonnet [24]; rate 0.032 kg/ha
  ORYSAT herbicidal rating: 0.0
ORYSAT Rice, Tebonnet [24]; rate 0.062 kg/ha
  ORYSAT herbicidal rating: 0.0
ORYSAT Rice, Tebonnet [24]; rate 0.125 kg/ha
  ORYSAT herbicidal rating: 2.0

From patent US20020111274A1, “1-alkyl-3-[1-(substituted phenyl) benzotriazol-6-yl] uracils” (BASF Aktiengesellschaft, priority 2000, published 2002)
